Measured values reported in patent US9840507B2, “5,6-dihydro-imidazo[1,2-a]pyrazin-8-ylamine derivatives useful as inhibitors of beta-secretase (BACE)” (Janssen Pharmaceutica, NV, priority 2010, dated 2017).
Read-outs that look alike come from different tables or passages of the source.

Assays:
[1] = molecular target: T1, recombinant BACE1 protein (Homo sapiens, UniProt P56817); test: Biochemical FRET based assay; details: recombinant BACE1 1 μg/ml, 10 μm substrate, 120 minutes, room temperature, pH 5.0; for IC50: read-out: Biochemical FRET based assay pIC50 (converted)
T1 construct: recombinant BACE1 protein in a final concentration of 1 μg/ml
Source text: This assay is a Fluorescence Resonance Energy Transfer Assay (FRET) based assay. The substrate for this assay is an APP derived 13 amino acids peptide that contains the ‘Swedish’ Lys-Met/Asn-Leu mutation of the amyloid precursor protein (APP) β-secretase cleavage site. This substrate also contains two fluorophores: (7-methoxycoumarin-4-yl) acetic acid (Mca) is a fluorescent donor with excitation wavelength at 320 nm and emission at 405 nm and 2,4-Dinitrophenyl (Dnp) is a proprietary quencher acceptor. […] Upon cleavage by BACE1, the fluorophore Mca is separated from the quenching group Dnp, restoring the full fluorescence yield of the donor. The increase in fluorescence is linearly related to the rate of proteolysis (Koike H et al. J. Biochem. 1999, 126, 235-242).
Briefly in a 384-well format recombinant BACE1 protein in a final concentration of 1 μg/ml is incubated for 120 minutes at room temperature with 10 μm substrate in incubation buffer (40 mM Citrate buffer pH 5.0, 0.04% PEG, 4% DMSO) in the absence or presence of compound. Next the amount of proteolysis is directly measured by fluorescence measurement at T=0 and T=120 (excitation at 320 nm and emission at 405 nm).
(§1) LC=Median of the low control values
=Low control: Reaction without enzyme
(§2) HC=Median of the High control values
=High Control: Reaction with enzyme % Effect=100−[(sample−LC)/(HC−LC)*100] % Control=(sample/HC)*100% % Controlmin=(sample−LC)/(HC−LC)*100

[2] = system: Aβ42 produced and secreted into the medium of human neuroblastoma SKNBE2 cells; test: Cellular αlisa assay in SKNBE2 cells, Aβ42; type: cell-based; details: Homo sapiens, SKNBE2, 18 h, read-out: Cellular αlisa assay in SKNBE2 cells Aβ42 pIC50 (converted)
Method: (§3) In two αlisa assays the levels of Aβtotal and Aβ42 produced and secreted into the medium of human neuroblastoma SKNBE2 cells are quantified. The assay is based on the human neuroblastoma SKNBE2 expressing the wild type Amyloid Precursor Protein (hAPP695). The compounds are diluted and added to these cells, incubated for 18 hours and then measurements of Aβ42 and Aβtotal are taken. Aβtotal and Aβ42 are measured by sandwich αlisa. αlisa is a sandwich assay using biotinylated antibody AbN/25 attached to streptavidin coated beads and antibody Ab4G8 or cAb42/26 conjugated acceptor beads for the detection of Aβtotal and Aβ42 respectively. In the presence of Aβtotal or Aβ42, the beads come into close proximity. The excitation of the Donor beads provokes the release of singlet oxygen molecules that triggers a cascade of energy transfer in the Acceptor beads, resulting in light emission. Light emission is measured after 1 hour incubation (excitation at […] and emission at 615 nm).
(§4) A best-fit curve is fitted by a minimum sum of squares method to the plot of % Controlmin versus compound concentration.
as §1
(§5) =Low control: cells preincubated without compound, without biotinylated Ab in the αlisa
as §2
(§6) =High Control: cells preincubated without compound % Effect=100−[(sample−LC)/(HC−LC)*100] % Control=(sample/HC)*100% % Controlmin=(sample−LC)/(HC−LC)*100

[3] = system: Aβtotal produced and secreted into the medium of human neuroblastoma SKNBE2 cells; test: Cellular αlisa assay in SKNBE2 cells, Aβtotal; type: cell-based; details: Homo sapiens, SKNBE2, 18 h, read-out: Cellular αlisa assay in SKNBE2 cells Aβtotal pIC50 (converted)
Method: as §3, §4, §1, §5, §2, §6

[4] = SKNBE2 cells expressing hAPP695, incubated for 18 hours

T1 sequence (P56817 46-501): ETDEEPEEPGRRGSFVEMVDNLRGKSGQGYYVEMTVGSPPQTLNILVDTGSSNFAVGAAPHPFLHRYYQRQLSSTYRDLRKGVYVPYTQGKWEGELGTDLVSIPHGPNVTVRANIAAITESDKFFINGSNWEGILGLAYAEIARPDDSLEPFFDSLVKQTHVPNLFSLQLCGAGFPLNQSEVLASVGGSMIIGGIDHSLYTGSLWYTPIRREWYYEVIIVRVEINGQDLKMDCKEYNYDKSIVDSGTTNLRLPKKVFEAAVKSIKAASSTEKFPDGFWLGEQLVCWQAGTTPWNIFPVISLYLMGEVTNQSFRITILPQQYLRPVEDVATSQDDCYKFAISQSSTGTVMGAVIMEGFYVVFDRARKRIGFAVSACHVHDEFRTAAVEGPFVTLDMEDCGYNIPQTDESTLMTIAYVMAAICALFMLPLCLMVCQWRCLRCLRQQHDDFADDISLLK

Row | IC50 [1] [nM] | IC50 [2, 4] [nM] | IC50 [3, 4] [nM] | Biochemical FRET based assay pIC50 [1] | Compound | IC50 [2] [nM] | IC50 [3] [nM]
1 | 18600 | 2340 | 2190 | – | CC1(c2cc(-c3cncc(Cl)c3)c(F)cc2F)Cn2ccnc2C(N)=N1 (single isomer, unassigned) [Compound 12] | – | –
2 | 107 | 17.4 | 16.6 | – | COc1ccc(C(=O)Nc2ccc(F)c([C@]3(C)Cn4ccnc4C(N)=N3)c2)nc1 [Compound 17] | – | –
3 | 49 | 11 | 9.77 | – | C[C@@]1(c2cc(NC(=O)c3ncc(Cl)cc3Cl)ccc2F)Cn2ccnc2C(N)=N1 [Compound 19] | – | –
4 | 75.9 | 17.4 | 17.8 | – | C[C@@]1(c2cc(NC(=O)c3ncc(Cl)cc3F)ccc2F)Cn2ccnc2C(N)=N1 [Compound 20] | – | –
5 | 95.5 | 9.55 | 8.51 | – | C[C@@]1(c2cc(NC(=O)c3ncc(C#N)cc3F)ccc2F)Cn2ccnc2C(N)=N1 [Compound 22] | – | –
6 | – | 15.8 | 16.6 | – | C[C@@]1(c2cc(NC(=O)c3ccn(C(F)F)n3)ccc2F)Cn2cc(C(F)(F)F)nc2C(N)=N1 [Compound 37] | – | –
7 | 162 | – | – | – | C[C@@]1(c2cc(NC(=O)c3ccn(C(F)F)n3)ccc2F)Cn2cc(C(F)F)nc2C(N)=N1 [Compound 51] | – | –
8 | 63.1 | – | – | – | C[C@@]1(c2cc(NC(=O)c3ccc(F)cn3)ccc2F)Cn2c(C#N)cnc2C(N)=N1 [Compound 66, (R)—N-{3-[8-amino-3-cyano-6-methyl-5,6-dihydroimidazo[1,2-a]pyrazin-6-yl]-4-fluorophenyl}-5-fluoropyridine-2-carboxamide] | – | –

Continued, compound first:

Row | Compound | IC50 [1] [nM] | IC50 [2, 4] [nM] | IC50 [3, 4] [nM] | Biochemical FRET based assay pIC50 [1] | IC50 [2] [nM] | IC50 [3] [nM]
9 | CC1(c2cccc(-c3cncnc3)c2)Cn2ccnc2C(N)=N1 (racemic) [Compound 1, rac-6-methyl-6-(3-pyrimidin-5-yl-phenyl)-5,6-dihydro-imidazo[1,2-a]pyrazin-8-ylamine] | 9770 | 191 | 174 | – | – | –
10 | COc1cncc(-c2cccc(C3(C)Cn4ccnc4C(N)=N3)c2)c1 (racemic) [Compound 2, rac-6-[3-(5-methoxy-pyridin-3-yl)-phenyl]-6-methyl-5,6-dihydro-imidazo[1,2-a]pyrazin-8-ylamine] | – | 2140 | 2340 | >4.52 | – | –
11 | CC1(c2cccc(-c3cc(Cl)cc(Cl)c3)c2)Cn2ccnc2C(N)=N1 (racemic) [Compound 3, rac-6-(3′,5′-dichloro-biphenyl-3-yl)-6-methyl-5,6-dihydro-imidazo[1,2-a]pyrazin-8-ylamine] | 26900 | – | – | – | 7940 | 7080
12 | CC1(c2cccc(NC(=O)c3ccc(Cl)cn3)c2)Cn2ccnc2C(N)=N1 (racemic) [Compound 6, rac-5-chloro-pyridine-2-carboxylic acid [3-(8-amino-6-methyl-5,6-dihydro-imidazo[1,2-a]pyrazin-6-yl)-phenyl]-amide] | 331 | 70.8 | 69.2 | – | – | –
13 | CC1(c2cc(-c3cncnc3)ccc2F)Cn2ccnc2C(N)=N1 (single isomer, unassigned) [Compound 7] | 20000 | 2750 | 2400 | – | – | –
14 | CC1(c2cc(NC(=O)c3ccc(Cl)cn3)ccc2F)Cn2ccnc2C(N)=N1 (single isomer, unassigned) [Compound 8] | – | 12.3 | 11 | – | – | –
15 | CC1(c2cc(-c3cncnc3)c(F)cc2F)Cn2ccnc2C(N)=N1 (single isomer, unassigned) [Compound 11] | 16600 | 2340 | 1950 | – | – | –
16 | C[C@@]1(c2cccc(-c3cncnc3)c2)Cn2ccnc2C(N)=N1 [Compound 4, (R)-6-methyl-6-(3-pyrimidin-5-yl-phenyl)-5,6-dihydro-imidazo[1,2-a]pyrazin-8-ylamine] | – | 7760 | 7760 | >4.52 | – | –
17 | C[C@@]1(c2cccc(-c3cc(Cl)cc(Cl)c3)c2)Cn2ccnc2C(N)=N1 [Compound 5, (R)-6-(3′,5′-dichloro-biphenyl-3-yl)-6-methyl-5,6-dihydro-imidazo[1,2-a]pyrazin-8-ylamine] | 14100 | – | – | – | 5890 | 5010
